These results are taken from patent US12268632B2, “Self-retaining implantable drug delivery device” (GoldenBiotech, LLC, priority 2018, dated 2025).

Holding throughout (type): physicochemical
Data set [1] in a line: Korsmeyer-Peppas analysis of drug release (log percent released vs log time). On the procedure:
To confirm the results obtained based on the Higuchi equation analysis, the data above was also analyzed using the Korsmeyer-Peppas plot, which evaluates the mechanism of drug release by plotting the log of percent drug released over the log time in hours. If n equals 0.45, then Fickian diffusion is indicated for a cylinder (0.42 for cylinder of low aspect ratio). […] As exemplified FIG. 11, data is plotted as the log of cumulative percent drug released on the y-axis and the log time in hours on the x-axis.

A short description of data set [2]: Chemical stability of prostaglandin analogues in PBS, RPHPLC. Particulars: PBS at pH 4, 7 and 10 and at 4° C., 33° C. and 50° C. On the procedure:
The chemical stability of prostaglandin analogues was also examined. In these experiments, a prostaglandin analogue was incubated in phospho-buffered saline (PBS) at pH 4, 7 and 10 and at 4° C., 33° C. and 50° C. representing long term storage, eye temperature and accelerate temperature conditions respectively. Analyses were performed by RPHPLC as described in Example 2, noting any hydrolysis products formed. […] This stability is most likely due to the amide linkage in bimatoprost which is much more hydrolytically stable than the ester linkage in latanoprost and travoprost.

Data set [3] is described as follows: Higuchi equation analysis of drug release (cumulative release vs square root of time). Particulars: coated drug-loaded silicone polymer matrices. Here is the method:
In order to ascertain whether the mechanism of drug release was based on diffusion, data obtained from various coated silicone polymer matrices were analyzed using the Higuchi equation. This analysis determines the degree of proportionality between the cumulative amount of drug released and the square root of time (SQRT). […] As exemplified FIG. 10, data is plotted as the square root of time taken on the x-axis and the cumulative percentage of drug release on the y-axis.

Data set [4] is described as follows: Physical appearance and durometer mechanical properties of drug-loaded silicone polymer matrix test samples. An excerpt: To test the loading capacity of a silicone elastomer polymer matrix for a prostaglandin analogue, polymer matrix with different amounts and types of a prostaglandin analogue were made and the physical and mechanical properties of the resulting polymerized drug-loaded matrix were characterized (Tables 1-3). These polymer matrix test samples were made by mixing together a prostaglandin analogue, a liquid cyclic vinyl siloxane elastomer, a crosslinker, and a catalyst using a high-speed mixer and then heated the capped container at 70° C. for 24 hours to cure the mixture. A filler, such as a fumed silica, was also used to provide sufficient mechanical strength to the polymerized matrix. In addition, an inhibitor was used to slow the crosslinking reaction to a workable rate. The resulting thin-disc-shaped drug-loaded polymer matrix was allowed to cool to room temperature and then placed in 4° C. for 24 hours to increase stiffness of the material. The physical appearance of each drug-loaded polymer matrix test sample was examined visually and its mechanical properties analyzed using a durometer.

The nature of data set [5]: In vitro drug release from drug-loaded silicone polymer matrix in PBS pH 7.4 at 37° C., RPHPLC. Particulars: uncoated silicone polymer matrix loaded with 10% latanoprost, FIG. 5. Here is the method: To test the controlled release properties of the disclosed drug-loaded silicone polymer matrices, the effects of a coating were examined. In these experiments, test samples were made as described in Example 1 to produce thin-disc-shaped drug-loaded polymer matrix. From this material, test samples were prepared by 1) cutting out rectangular polygons of about 3 mm length, about 1 mm width and about 1 mm height were cut from polymerized drug-loaded material; or 2) cutting out cylindrical plugs of about 3 mm length and having a diameter of about 0.5 mm to about 1 mm. The weight of the test samples was in the range of about 0.1 mg to about 4 mg.
These cut test samples were then coated using one of three procedures. […]
To examine the drug release properties of a test sample, each sample was placed in 2 mL Eppendorf tube containing 1.5 mL of Phosphate Buffered Saline, pH 7.4 (PBS). […] An aliquot of the removed PBS was then analyzed by reversed phase HPLC (RPHPLC) to determine the amount of drug released from the test sample during the incubation period. […] Peak detection and quantitation were determined by establishing a calibration curve using known amounts of each drug tested and the amount of drug present in the test sample aliquot interpolated from this calibration curve using ChemStation software.

Data set [6] is described as follows: Release from post-loaded travoprost section of the implantable device. Particulars: post loaded 3 mm section, uncoated, at 38 days. Here is the method: A central section of a self-retaining implantable drug delivery device disclosed herein was loaded with travoprost by cutting a 3 mm section of the device and then placed into 0.200 ml of hexanes for 3 hours. Following this period, the self-retaining implantable drug delivery device was placed immediately into 0.050 mL of a travoprost stock solution 25 mg/mL in ethanol and allowed to stand overnight. The following day, this section was washed sequentially by dipping into a water bath, followed by a 10% acetonitrile bath. It was dried at 80 C and set to release the following day. The section was allowed to release over a period of 38 days. The loading was determined to be approximately 13 mcg. […] This release profile is predicted by the Higuchi mechanism. This type of loading procedure we term post loading. The loaded section is coated with a poly(p-xylylene) polymer and two tiny holes are placed completely through the section. The section is then molded together with the two flanking sections of the stent to form the final product. The release from this modified stent follows a near zero order release in vitro and in vivo in preclinical animal models and clinical studies.

The mark [7] stands for this setting: Drug Loading 2.5%, coated drug-loaded silicone polymer matrices.
[8] abbreviates: Drug Loading 5%, coated drug-loaded silicone polymer matrices.
[9] abbreviates: Drug Loading 10%, coated drug-loaded silicone polymer matrices.
Setting [10] is: Drug Loading 15%, coated drug-loaded silicone polymer matrices.
The mark [11] stands for this setting: Drug Loading 20%, coated drug-loaded silicone polymer matrices.

`CCNC(=O)CCC/C=C\C[C@@H]1[C@@H](/C=C/[C@@H](O)CCc2ccccc2)[C@H](O)C[C@@H]1O` [Bimatoprost, bimatoprost]: the “Average n Values (Korsmeyer-Peppas)” value was 0.326± in data set [1] (Drug Loading 1%, coated drug-loaded silicone polymer matrices); 0.372± in data set [1] (setting [7]); 0.411± in data set [1] (setting [8]); 0.377± in data set [1] (setting [9]); 0.380± in data set [1] (setting [10]); 0.601± in data set [1] (setting [11]). For the same molecule, the “Average n Values (Korsmeyer-Peppas)” value in data set [1] (Mean over drug loadings) amounted to 0.37 ± 0.08. The “chemical stability (hydrolysis)” value in data set [2] was “the most stable”. The “Average Linear Regression r^2 Value (Higuchi)” value in data set [3] (Drug Loading 1%) was determined as 0.992; in data set [3] (Drug Loading 2.5%), 0.995; in data set [3] (Drug Loading 5%) it was 0.997; in data set [3] (Drug Loading 10%), 0.988; in data set [3] (Drug Loading 15%), 0.994; in data set [3] (Drug Loading 20%) it was 0.972. Besides, the “amount that would not produce a satisfactory drug-loaded silicone polymer matrix” value in data set [4] is reported as ≥ 20%. The “physical appearance of silicone polymer matrix” value (“physical appearance” for short) in data set [4] (20% test sample) is “brittle and contained clumps of unincorporated components from the mixture”.
Turning to `CC(C)OC(=O)CCC/C=C\C[C@@H]1[C@@H](CC[C@@H](O)CCc2ccccc2)[C@H](O)C[C@@H]1O` [Latanoprost, latanoprost], the “Average n Values (Korsmeyer-Peppas)” value in data set [1] (setting [8]) was 0.504±; in data set [1] (setting [9]) it was 0.501±; in data set [1] (setting [10]) it was 0.712±; in data set [1] (setting [11]), 1.200±; in data set [1] (Mean over drug loadings), 0.57 ± 0.16. In data set [5], the release profile result is “rapid release of the drug over the first five days, which then tapers off and by day 12 shows no further significant release”. Further, the “chemical stability (hydrolysis)” value in data set [2] is on record as “travoprost was significantly more stable than latanoprost”. Further, the “Average Linear Regression r^2 Value (Higuchi)” value is on record as 0.964 in data set [3] (Drug Loading 5%), 0.983 in data set [3] (Drug Loading 10%), 0.990 in data set [3] (Drug Loading 15%) and 0.990 in data set [3] (Drug Loading 20%). Besides, in data set [4], the “amount that would not produce a satisfactory drug-loaded silicone polymer matrix” value was ≥ 25%. In addition, the “physical appearance” value in data set [4] (25% test sample) is “exhibited more elasticity but had a surface with tacky attributes and a consistency that was not fully homogeneous”.
As for `CC(C)OC(=O)CCC/C=C\C[C@@H]1[C@@H](/C=C/[C@@H](O)COc2cccc(C(F)(F)F)c2)[C@H](O)C[C@@H]1O` [Travoprost, travoprost], the “Average n Values (Korsmeyer-Peppas)” value is listed as 0.543± in data set [1] (setting [7]), 0.507± in data set [1] (setting [8]), 0.453± in data set [1] (setting [9]) and 0.50 ± 0.09 in data set [1] (Mean over drug loadings). Moreover, the amount released in data set [6] was determined as 99%. In data set [2], the “chemical stability (hydrolysis)” value is listed as “had the requisite stability”. Besides, the “Average Linear Regression r^2 Value (Higuchi)” value in data set [3] (Drug Loading 2.5%) was determined as 0.976; in data set [3] (Drug Loading 5%), 0.972; in data set [3] (Drug Loading 10%) it was 0.941. Further, the “amount that would not produce a satisfactory drug-loaded silicone polymer matrix” value in data set [4] was ≥ 15%. In addition, the “physical appearance” value in data set [4] (15% and 20% test samples) is “exhibited more elasticity but had surfaces with tacky attributes and a consistency that was not fully homogeneous”.
